Data on two compounds can be found in patent US8008345B2, “Dermal therapy using phosphate derivatives of electron transfer agents” (Vital Health Sciences Pty. Ltd., priority 2001, dated 2011).

Structures can show the parent of a compound that is named as a salt.

One series has as its system insect bite. Put plainly: Case: insect bite with blistering and inflammation (Example 9). The format is in vivo, human. Conditions: oral anti-histamine plus topical corticosteroid cream together, first day. The source says:
In this example, a method of the invention is used to treat erythema and inflammation symptoms associated with an insect bite.

A further series deals with photodamaged skin (face). Put plainly: Eight-week pilot study on photodamaged skin: clinical grading of efficacy (aging) parameters. The format is in vivo, human. To be noted: pilot study outcome, stated for the active. The method, then:
An eight-week double blind vehicle controlled pilot study was conducted to evaluate the effects of a topical treatment comprising tocopheryl phosphate complexes on improving the appearance of photodamaged skin. Ten female subjects completed the pilot study.
At Visit 1 (screening), prospective subjects completed a health and eligibility questionnaire, and signed a photography release form and an informed consent agreement. Subjects were examined for study eligibility criteria according to the following classifications: […]
Qualified subjects returned to the clinic for Visit 2 (baseline). Subjects participated in the following clinical grading and instrumentation procedures: • Objective irritation (erythema, edema, scaling/skin dryness, rash) and subjective irritation (burning, itching, stinging, tingling, tightness) were assessed globally on the face. Results were recorded using the following scale: 0=none, 1=mild, 2=moderate, and 3=severe. • The following efficacy (aging) parameters were graded at the specified locations using a analog scale (extremes of the scale are listed in parentheses). […]
Mean scores for clinical grading parameters and pinch recoil measurements at Week 4 and Week 8 were statistically compared to baseline using a paired t-test at the p≦0.05 significance level. Mean percent change from baseline was calculated for all attributes. […]

Another series has as its system facial skin. Set-up: species or system human. To be noted: in vivo. As for the experimental part: Qualified subjects returned to the clinic for Visit 2 (baseline). Subjects participated in the following clinical grading and instrumentation procedures: • Objective irritation (erythema, edema, scaling/skin dryness, rash) and subjective irritation (burning, itching, stinging, tingling, tightness) were assessed globally on the face. Results were recorded using the following scale: 0=none, 1=mild, 2=moderate, and 3=severe. • The following efficacy (aging) parameters were graded at the specified locations using a analog scale (extremes of the scale are listed in parentheses).
Subjects were assigned to use test material Product A (cream from Example 4) or Product B (Vehicle control: emulsion system) according to a predetermined randomization. […]
Mean scores for clinical grading parameters and pinch recoil measurements at Week 4 and Week 8 were statistically compared to baseline using a paired t-test at the p≦0.05 significance level. Mean percent change from baseline was calculated for all attributes. […] For self-assessment questionnaire responses at Week 4 and Week 8, mean response values and standard deviations were calculated for each question.
Irritation parameters were graded according to a four-point scale where 0=None, 1=Mild, 2=Moderate, and 3=Severe. Efficacy parameters were assessed according to an analog scale where 0 represents positive scores and 10 represents negative scores.

`CC(C)(C(=O)O)c1ccc(C(O)CCCN2CCC(C(O)(c3ccccc3)c3ccccc3)CC2)cc1` (stereo not drawn) [fexofenadine hydrochloride]: the improvement of bite result with insect bite is on record as “little improvement”.

In the case of “Lauryliminodipropionic Acid Tocopheryl Phosphate”, the “appearance of fine lines, wrinkles and skin elasticity in photodamaged skin” value in the series with photodamaged skin (face) was “improved the appearance of fine lines, wrinkles and skin elasticity”. The “objective or subjective skin irritation responses in users” value in the series on facial skin is on record as “did not produce objective or subjective skin irritation responses”.
